Experimental findings from PMC10218905, “Improving the Enzymatic Activity and Stability of a Lytic Polysaccharide Monooxygenase” (International Journal of Molecular Sciences, 2023) are described below.

Assay in all cases: spectrophotometric oxidation assay at […] nm
What all share (type): biochemical
Settings in all cases: 100 µM H2O2 co-substrate, copper-loaded enzyme, 100 mM sodium acetate pH 6.0, 30 °C; read-out: Km app

The target of test [1] is T1, BaLPMO10A (Bacillus velezensis, UniProt A7Z541, I31V/E151D, form not given).
T1 construct: gene RBAM_017540; mature enzyme with native N-terminus; N-terminal SUMO tag cleaved, C-terminal 6xHis tag; pET-20b, E. coli BL21(DE3); copper-saturated
T1 sequence (A7Z541 entry or part of it I31V/E151D, form open): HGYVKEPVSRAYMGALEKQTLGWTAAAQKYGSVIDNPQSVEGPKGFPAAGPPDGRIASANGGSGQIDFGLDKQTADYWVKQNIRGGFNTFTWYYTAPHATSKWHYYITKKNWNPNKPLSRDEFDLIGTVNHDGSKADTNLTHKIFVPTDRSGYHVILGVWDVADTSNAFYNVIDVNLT

The target in test [2] is T2, BaLPMO10A (Bacillus velezensis, UniProt A7Z541).
T2 construct: gene RBAM_017540; mature enzyme with native N-terminus; N-terminal SUMO tag cleaved, C-terminal 6xHis tag; pET-20b, E. coli BL21(DE3); copper-saturated
T2 sequence (A7Z541 entry or part of it): as the sequence (A7Z541 entry or part of it I31V/E151D, form open) above, with V4I, D124E counted along it

Test [3] deals with T3, BaLPMO10A (Bacillus velezensis, UniProt A7Z541, V67L/E151D, form not given).
T3 construct: gene RBAM_017540; mature enzyme with native N-terminus; N-terminal SUMO tag cleaved, C-terminal 6xHis tag; pET-20b, E. coli BL21(DE3); copper-saturated
T3 sequence (A7Z541 entry or part of it V67L/E151D, form open): as the sequence (A7Z541 entry or part of it I31V/E151D, form open) above, with V4I, V40L counted along it

Test [4] deals with T4, BaLPMO10A (Bacillus velezensis, UniProt A7Z541, V67L, form not given).
T4 construct: gene RBAM_017540; mature enzyme with native N-terminus; N-terminal SUMO tag cleaved, C-terminal 6xHis tag; pET-20b, E. coli BL21(DE3); copper-saturated
T4 sequence (A7Z541 entry or part of it V67L, form open): as the sequence (A7Z541 entry or part of it I31V/E151D, form open) above, with V4I, V40L, D124E counted along it

Molecules are shown by their SMILES.

In general, Km refers to the substrate concentration at which the rate is half of its maximum. Take `COc1cccc(OC)c1O` [2,6-DMP, 2,6-Dimethoxyphenol]: the Km worked out at 95.5 ± 9.5 mM at BaLPMO10A [1], 41.3 ± 7.33 mM at BaLPMO10A [2], 33.5 ± 1.6 mM at BaLPMO10A [3] and 32.5 ± 3.6 mM at BaLPMO10A [4].
